Reference: ChEMBL document CHEMBL3797072, “Discovery of Potent, Selective, and Orally Bioavailable Small-Molecule Modulators of the Mediator Complex-Associated Kinases CDK8 and CDK19” (J Med Chem, 2016)
≈ marks a conversion by molar mass, not a printed value.

Tests used:
physchem [1] = assay: physchem
in vivo [2] = conditions: mouse, plasma
in vivo [3] = conditions: mouse, faeces
in vivo [4] = conditions: mouse, plasma; remark: listed apart in the source
in vivo [5] = conditions: mouse, faeces; remark: listed apart in the source
in vivo [6] = conditions: NMRI, mouse
in vivo [7] = conditions: Beagle, dog
in vitro [8] = conditions: rat, microsomes
in vitro [9] = conditions: mouse, microsomes
in vitro [10] = conditions: human, microsomes
in vivo [11] = conditions: Wistar, rat
physchem [12] = assay: physchem; remark: listed apart in the source

| solubility thermodynamic (physchem [1]) [µg/mL] | clearance (in vivo [2]) [mL/min/kg] | dose excreted (in vivo [3]) [%] | clearance (in vivo [4]) [mL/min/kg] | dose excreted (in vivo [5]) [%] | Structure (SMILES) | other results |
| --- | --- | --- | --- | --- | --- | --- |
| 3 (≈ 7.08 µM) | – | – | – | – | Cn1cc(-c2ccc(-c3cncc(Cl)c3N3CCC4(CC3)CNC(=O)O4)cc2)cn1 | – |
| 2 (≈ 4.58 µM) | – | – | – | – | Cn1cc(-c2ccc(-c3cnc(N)c(Cl)c3N3CCC4(CCNC4=O)CC3)cc2)cn1 | – |
| 29 (≈ 65.1 µM) | – | – | – | – | CN1c2ccc(-c3cnc(N)c(F)c3N3CCC4(CCNC4=O)CC3)cc2CS1(=O)=O | – |
| – | 73.8 | 67 | 37 | 24 | Cn1cc(-c2ccc(-c3cncc(Cl)c3N3CCC4(CC3)NC(=O)CNC4=O)cc2)cn1 | – |
| 47 (≈ 111 µM) | – | – | – | – | Cn1cc(-c2ccc(-c3cncc(Cl)c3N3CCC4(CC3)NCNC4=O)cc2)cn1 | – |
| 1 (≈ 2.12 µM) | – | – | – | – | Cn1cc(-c2ccc(-c3cnc(N)c(C(F)(F)F)c3N3CCC4(CC3)CNC(=O)O4)cc2)cn1 | – |
| – | 43.2 | 17 | 47.3 | < 1 | Cn1cc(-c2ccc(-c3cnc(N)c(Cl)c3N3CCC4(CC3)CNC(=O)O4)cc2)cn1 | – |
| – | 68 | 20 | 47.5 | < 1 | CN1c2ccc(-c3cnc(N)c(Cl)c3N3CCC4(CC3)CNC(=O)O4)cc2CS1(=O)=O | – |
| 17 (≈ 37.9 µM) | 81.5 | 18 | 66.7 | < 1 | CN1c2ccc(-c3cncc(Cl)c3N3CCC4(CC3)CNC(=O)O4)cc2CS1(=O)=O | – |
| 248 (≈ 505 µM) | – | – | – | – | COCCN1CCCC12CCN(c1c(Cl)cncc1-c1ccc3c(c1)CS(=O)(=O)N3C)CC2 | – |
| < 1 | – | – | – | – | CC(C)(O)Cn1cc(-c2ccc(-c3cnc(N)c(Cl)c3N3CCC4(CCNC4=O)CC3)cc2)cn1 | – |
| – | – | – | – | – | CC(C)n1ncc2cc(-c3cnc(N)c(Cl)c3N3CCC4(CCNC4=O)CC3)ccc21 | microsomal CLint (in vitro [8]): 139 µL/min/mg; microsomal CLint (in vitro [9]): 202 µL/min/mg; microsomal CLint (in vitro [10]): 202 µL/min/mg; solubility kinetic (physchem [12]): 126 µM (≈ 55.3 µg/mL) |
| 3 (≈ 7.27 µM) | – | – | – | – | Cn1ncc2cc(-c3cnc(N)c(Cl)c3N3CCC4(CC3)CNC(=O)O4)ccc21 | – |

| Structure (SMILES) | solubility thermodynamic (physchem [1]) [µg/mL] | clearance (in vivo [2]) [mL/min/kg] | dose excreted (in vivo [3]) [%] | clearance (in vivo [4]) [mL/min/kg] | dose excreted (in vivo [5]) [%] | other results |
| --- | --- | --- | --- | --- | --- | --- |
| Cn1cc(-c2ccc(-c3cncc(Cl)c3N3CCC4(CCNC4=O)CC3)cc2)cn1 | 6 (≈ 14.2 µM) | 39 | 9.1 | 38.3 | < 1 | half-life (in vivo [6]): 33 min; half-life (in vivo [7]): 42 min; microsomal CLint (in vitro [8]): 54 µL/min/mg; microsomal CLint (in vitro [9]): 141 µL/min/mg; microsomal CLint (in vitro [10]): 84 µL/min/mg |
| Cn1ncc2cc(-c3cnc(N)c(Cl)c3N3CCC4(CCNC4=O)CC3)ccc21 | 40 (≈ 97.3 µM) | – | – | – | – | half-life (in vivo [6]): 46.8 min; half-life (in vivo [11]): 66 min; half-life (in vivo [7]): 59.4 min |
